Experimental data: patent US20030186946A1, “Suppression of cytotoxic protein conformers” (priority 2002, published 2003)
Read-outs that look alike come from different tables or passages of the source.

Experiments:
human amylin [1] = biological target: T1, human amylin (Homo sapiens, UniProt P10997); details: 10 μM thioflavin-T
T1 sequence (P10997 34-70 limits assumed): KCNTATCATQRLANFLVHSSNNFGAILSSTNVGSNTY
Experimental: Thioflavin-T binding fluorescent assays. The effects of various polycyclic compounds on islet amyloid formation were measured by fluorescence spectroscopy, using a SpectraMAX Gemini XS Fluorescence Spectrophotometer (Molecular Devices Corporation, Sunnyvale, Calif.). Excitation and emission maxima were set to 450 nm and 510 nm respectively using a cutoff filter at 495 nm. Thioflavin-T binds to amylin fibrils, but not to monomeric amylin (Goldsbury et al., (1999), J. Mol. Biol., 285:33-39). […] The rate of amylin fibril formation was determined by following thioflavin-T fluorescence in the presence or absence of the potential inhibitory drug. […] Background fluorescence by acridine and acridine orange in the absence of amylin was subtracted from the experimental results. The control preparation contained human amylin and thioflavin-T in the absence of drug. The rate of fluorescence enhancement under these conditions was used to compare amylin fibril formation in the absence and presence of the drug. All other experimental conditions were identical.
Tri-prolyl amylin and rat amylin with thioflavin-T were also used as additional controls.
Each data point represents the mean±s.e.m of three separate reactions.
Effect of chlorpromazine on enhancement of thioflavin-Tfluorescence by human amylin (FIG. 2). Chlorpromazine (700 μM) (π) was incubated in 10 mM tris p H 7.4, with monomeric human amylin (70 μM) in the presence of thioflavin-T (10 μM). The fluorescence of the reaction was monitored over 24 hours as described in the methods. […] Each data point represents the mean±s.e.m of three separate reactions.
Effect of selected polycylic compounds on enhancement of thioflavin-Tfluorescence by human amylin (FIG. 3). Acridine, acridine orange, neutral red and methylene blue are selected examples of fused tricyclic ring compounds. […] Compound structures are shown adjacent to the appropriate graph. […] Fluorescence was monitored over 24 h as described in the Methods. A preparation containing human amylin and thioflavin-T only (▪), was included as a comparison in the absence of drug. […] Each data point represents the mean±s.e.m of three independent experiments.

RINm5F cells [2] = tested on: RINm5F cells
Experimental: (§1) Cell Culture and Cytotoxicity Assays. RINm5F cells were cultured in RPMI 1640 medium containing 10% fetal bovine serum, 290 μg/mL L-glutamine, 100 IU/mL penicillin and 100 μg/mL streptomycin. Cells were plated at a density of 15×1 cells per well, incubated for 48 h, rinsed with PBS and placed in fresh medium containing Congo red. Freshly prepared human amylin in Milli-Q water, was preincubated with Congo red for 30 min, then added to the cell culture medium to give a final concentration of 30 μM. Cells were treated for 22 h with human amylin in the presence or absence of 100 μM Congo red. Cell viability was determined by double-staining with calcein-AM and ethidium homodimer-1. Green fluorescence of live cells and red fluorescence marking nuclei of dead cells were simultaneously visualized using a Zeiss Axiovert S100 microscope equipped with a Zeiss filter set # 09. Photographs were taken at 400× magnification using a Zeiss AxioCam digital camera.
(§2) A. Representative fluorescence micrograph of RINm5F cells treated with 30 μM human amylin for 22 h and stained with calcein-AM and ethidium homodimer-1 to show live cells (green) and dead cells (red). […] B. A representative micrograph of RINm5F cells treated with 30 μM human amylin and 100 μM Congo red stained as above. […] The percentage of live cells was determined for cells treated for 22 h with vehicle; 30 μM human amylin; 30 μM human amylin in the presence of 100 μM Congo red; or 30 μM rat amylin. Experiments were repeated independently 10 times except for human amylin plus Congo red (A+CR) which was repeated five times. Error bars represent the s.e.m of live and dead cell counts over 6-12 fields per condition.

human amylin [3] = biological target: T1, human amylin; experiment: Radiolabelled precipitation assay of amylin fibril formation; format: biochemical; set-up: Amylin is a 37-residue; C-terminally amidated peptide having a disulfide bridge between the cysteines at residues 2 and 7; purchased Bachem Calif; (Torrance, Calif.); host or cells: chemical synthesis
Experimental: Radiolabelled Precipitation Assays. The precipitation of radiolabelled human and rat amylin fibrils was used as an independent method to monitor assembly of amylin fibrils in the presence or absence of potential inhibitors of amylin fibril formation. […] Incubation mixtures were then centrifuged at either 16,000×g or 100,000×g, for 20 min, and the amount of [^3H]-human amylin remaining in the supernatant after centrifugation was determined (Beckman LSW 3801 β-counter, USA). Results were expressed as percentages of precipitable counts per minute, relative to total radioactivity in the supernatant.
Incorporation of [^3H]-amylin into amylin fibrils was followed for 24 hours. Human amylin fibrils were precipitated by centrifugation at either 16,000×g (FIG. 7A) or at 100,000×g (FIG. 7B). Rat amylin (10 μM) in the presence of [^3H]-rat amylin was used as a non-fibril forming control (♦) (FIG. 7A). The results are shown as the percentage of precipitable radioactive amylin, relative to total radioactivity in the supernatant at each time point. Each data point represents the mean±s.e.m of three separate reactions.
The incorporation of radioactive monomeric amylin into the human amylin fibrils as they form, can be used to measure the rate at which amylin fibrils form in the presence or absence of a potential inhibitory drug. Amylin fibrils can be separated from solution by centrifugation and the amount of radioactive amylin precipitated in the amylin fibril pellet is then used as a measure of the amount of amylin fibrils present at that time.
Thioflavin-T, although not polycyclic, is widely used in fluorescent assays to measure amylin fibril formation. Incorporation of radioactivity into the pellet of an aliquot of the reaction mixture centrifuged at 16,000×g, for 20 minutes was monitored over the time periods indicated. Rat amylin (10 μM) with [^3H]-rat amylin added was used as a non fibril forming control (∘) in each experiment. The results are shown as the percentage of precipitable radioactive amyloid, relative to total radioactivity in the supernatant at each time point. Each data point represents the mean±s.e.m of three separate experiments.

human amylin [4] = biological target: T1, human amylin; experiment: Electron microscopy of human amylin fibrils; format: biochemical; set-up: Amylin is a 37-residue; C-terminally amidated peptide having a disulfide bridge between the cysteines at residues 2 and 7; purchased Bachem Calif; (Torrance, Calif.); host or cells: chemical synthesis
Experimental: Electron Microscopy. […] Samples were removed at various time points and prepared for electron microscopy. Aliquots (8 μl) of the amylin fibril preparations were absorbed to glow-discharged carbon-coated collodion film on 200-mesh copper grids for 1 min. Grids were blotted, washed twice in droplets of deionised water and stained with 2% (w/v) uranyl acetate. Grids were examined in a Phillips Technai transmission electron microscope operated at 120 kV.
Samples were removed at various time points and prepared for electron microscopy according to the procedure described in the methods.
Electron Microscopy of human amylin fibrils in the presence and absence of quinacrine (FIG. 5). A 100 fold molar excess of quinacrine was incubated with human amylin. Samples were removed at various time points and prepared for electron microscopy according to the procedure described in the methods.
Electron Microscopy of human amylin fibrils in the presence and absence of selected polycyclic compounds (FIG. 6). […] Samples were removed and prepared for electron microscopy as described in the Methods. All experiments were performed in triplicate and the pictures above are representative of at least 6 photographs taken at each magnification.

RINm5F cells [5] = experiment: Cytotoxicity assay in RINm5F cells (calcein-AM / ethidium homodimer-1 staining); details: relative molar ratios which produced suppression of amyloid aggregation (low μM)
Experimental: as §1, §2

[6] = 1200 μM compound (20-fold molar excess), 60 μM human amylin, over 24 h (FIG. 3)
[7] = 200 μM compound, 10 μM human amylin, after 72 h
[8] = 1200 μM compound, 60 μM human amylin, 10 mM tris pH 7.4, 24 h (FIG. 6)

| Structure (SMILES) | enhancement of thioflavin-T fluorescence by human amylin (human amylin [1]; [6]) | intrinsic cytotoxicity of compound to RINm5F β cells (RINm5F cells [2]) | level of precipitable amyloid (human amylin [3]; [7]) [%] | overall decrease in precipitable amyloid (human amylin [3]; [7]) [%] | effect on precipitable amyloid formation (human amylin [3]; 200 μM compound, 10 μM human amylin, 16,000×g (FIG. 8)) | morphology of human amylin fibrils (electron microscopy) (human amylin [4]; [8]) | enhancement of thioflavin-T fluorescence by human amylin (human amylin [1]; 700 μM compound, 70 μM human amylin, 10 mM tris pH 7.4, over 72 hours (FIG. 1)) | intrinsic cytotoxicity of compound to RINm5F β cells (RINm5F cells [5]) | reduction in the incorporation of radioactive human amylin into precipitable amylin fibrils (human amylin [3]; 100 μM tetracycline, 10 μM human amylin, 16,000×g) [%] | percentage of precipitable amylin fibrils on centrifugation at 100,000×g (human amylin [3]; 100 μM tetracycline, 10 μM human amylin, 100,000×g (FIG. 7B)) | percentage of precipitable amyloid, after the decrease (human amylin [3]; 200 μM tetracycline, 10 μM human amylin, 50 h incubation period) [%] | percentage of precipitable amyloid, before the decrease (human amylin [3]; 200 μM tetracycline, 10 μM human amylin, start of the decrease) | rate of formation of human amylin fibrils (electron microscopy) (human amylin [4]; 700 μM tetracycline, 70 μM human amylin, 1.5 hours and 5 hours) | morphology of human amylin fibrils (electron microscopy) (human amylin [4]; 700 μM tetracycline, 70 μM human amylin, 29 hours and 48 hours) | morphology of pre-formed amylin fibrils (electron microscopy) (human amylin [4]; human amylin pre-incubated for 20 h, then tetracycline for 48 h) |
| --- | --- | --- | --- | --- | --- | --- | --- | --- | --- | --- | --- | --- | --- | --- | --- |
| CN(C)c1ccc2cc3ccc(N(C)C)cc3nc2c1 [acridine orange] | no increase in thioflavin-T enhanced fluorescence | cytotoxic | 50 | 30 |  |  |  |  |  |  |  |  |  |  |  |
| Cc1cc2nc3ccc(N(C)C)cc3nc2cc1N [neutral red] | no increase in thioflavin-T enhanced fluorescence | cytotoxic |  |  | small but significant reduction | still formed characteristic amylin fibrils |  |  |  |  |  |  |  |  |  |
| CN(C)[C@@H]1C(=O)C(C(N)=O)=C(O)[C@@]2(O)C(=O)C3=C(O)c4c(O)cccc4[C@@](C)(O)[C@H]3C[C@@H]12 [tetracycline] | immediate increase in fluorescence occurred, followed by a gradual decrease in fluorescence over the next 24 h |  |  |  |  | short fragmented structures | initial but significantly decreased formation of a mylin fibril-associated fluorescence up to 2 h ours, followed by a gradual decrease in fluorescence | cytotoxic | ~50 | unaffected | ~60 | approximately 85% | appears to slow the rate of formation of human amylin fibrils | short fragmented fibrils | fragments of amylin fibrils interdispersed with smaller fibrils |
